{"source": "patent US20130331402A1", "about": "“DOSING REGIMEN ASSOCIATED WITH LONG-ACTING INJECTABLE PALIPERIDONE ESTERS” (Janssen Pharmaceutica NV, priority 2009, published 2013)", "origin": "cited, not measured here", "data": [{"conditions": "background statement", "values": [{"smiles": "CCCCCCCCCCCCCCCC(=O)OC1CCCn2c1nc(C)c(CCN1CCC(c3noc4cc(F)ccc34)CC1)c2=O", "note": "(racemic) [paliperidone palmitate, (±)-3-[2-[4-(6-fluoro-1,2-benzisoxazol-3-yl)-1-piperidinyl]ethyl]-6,7,8,9-tetrahydro-2-methyl-4-oxo-4H-pyrido[1,2-c]pyrimidin-9-yl hexadecanoate]", "water solubility": "extreme low water solubility"}]}, {"conditions": "depot intramuscular antipsychotics", "units": {"t1/2 (apparent terminal half-life after multiple dosing)": "h"}, "values": [{"smiles": "CCCCCCCCCC(=O)OCCN1CCN(CC/C=C2\\c3ccccc3Sc3ccc(Cl)cc32)CC1", "note": "[Clopenthixol decanoate]", "t1/2 (apparent terminal half-life after multiple dosing)": 456}, {"smiles": "CCCCCCCCCC(=O)OCCN1CCN(CC/C=C2\\c3ccccc3Sc3ccc(C(F)(F)F)cc32)CC1", "note": "[Flupenthixol decanoate]", "t1/2 (apparent terminal half-life after multiple dosing)": 408}, {"smiles": "CCCCCCCCCC(=O)OCCN1CCN(CCCN2c3ccccc3Sc3ccc(C(F)(F)F)cc32)CC1", "note": "[Fluphenazine decanoate]", "t1/2 (apparent terminal half-life after multiple dosing)": 336}, {"smiles": "CCCCCCC(=O)OCCN1CCN(CCCN2c3ccccc3Sc3ccc(C(F)(F)F)cc32)CC1", "note": "[Fluphenazine enanthate]", "t1/2 (apparent terminal half-life after multiple dosing)": 96}, {"smiles": "O=C1NCN(c2ccccc2)C12CCN(CCCC(c1ccc(F)cc1)c1ccc(F)cc1)CC2", "note": "[Fluspirilene]", "t1/2 (apparent terminal half-life after multiple dosing)": 170}, {"smiles": "CCCCCCCCCC(=O)OC1(c2ccc(Cl)cc2)CCN(CCCC(=O)c2ccc(F)cc2)CC1", "note": "[Haloperidol decanoate]", "t1/2 (apparent terminal half-life after multiple dosing)": 504}, {"smiles": "Cc1cc2c(s1)Nc1ccccc1N=C2N1CCN(C)CC1.O.O=C(O)c1cc2ccccc2c(Cc2c(O)c(C(=O)O)cc3ccccc23)c1O", "note": "[Olanzapine pamoate]", "t1/2 (apparent terminal half-life after multiple dosing)": 720}, {"smiles": "CCCCCCC(=O)OCCN1CCN(CCCN2c3ccccc3Sc3ccc(Cl)cc32)CC1", "note": "[Perphenazine enanthate]", "t1/2 (apparent terminal half-life after multiple dosing)": "96 to 140"}, {"smiles": "CCCCCCCCCCCCCCCC(=O)OCCC1CCN(CCCN2c3ccccc3Sc3ccc(S(=O)(=O)N(C)C)cc32)CC1", "note": "[Pipothiazine palmitate]", "t1/2 (apparent terminal half-life after multiple dosing)": "360 to 384"}, {"smiles": "CCCCCCCCCC(=O)OCCN1CCN(CC/C=C2/c3ccccc3Sc3ccc(Cl)cc32)CC1", "note": "[Zuclopenthixol decanoate]", "t1/2 (apparent terminal half-life after multiple dosing)": 456}]}, {"conditions": "oral atypical antipsychotics, Table 2", "units": {"Terminal Half-life": "h"}, "values": [{"smiles": "CCN1CCCC1CNC(=O)c1cc(S(=O)(=O)CC)c(N)cc1OC", "note": "(stereo not drawn) [Amisulpride]", "Terminal Half-life": 12}, {"smiles": "O=C1CCc2ccc(OCCCCN3CCN(c4cccc(Cl)c4Cl)CC3)cc2N1", "note": "[Aripiprazole]", "Terminal Half-life": "47 to 68"}, {"smiles": "CN1CCN(C2=Nc3cc(Cl)ccc3Nc3ccccc32)CC1", "note": "[Clozapine]", "Terminal Half-life": "9 to 17"}, {"smiles": "Cc1nc2n(c(=O)c1CCN1CCC(c3noc4cc(F)ccc34)CC1)CCCC2O", "note": "(stereo not drawn) [Paliperidone (9-hydroxy-risperidone), Paliperidone]", "Terminal Half-life": 25}, {"smiles": "OCCOCCN1CCN(C2=Nc3ccccc3Sc3ccccc32)CC1", "note": "[Quetiapine]", "Terminal Half-life": 6}, {"smiles": "O=C1NCCN1CCN1CCC(c2cn(-c3ccc(F)cc3)c3ccc(Cl)cc23)CC1", "note": "[Sertindole]", "Terminal Half-life": 70}, {"smiles": "O=C1Cc2cc(CCN3CCN(c4nsc5ccccc45)CC3)c(Cl)cc2N1", "note": "[Ziprasidone]", "Terminal Half-life": "8 to 10"}]}, {"conditions": "oral typical antipsychotics, Table 1", "units": {"Terminal Half-life": "h"}, "values": [{"smiles": "CN(C)CCCN1c2ccccc2Sc2ccc(Cl)cc21", "note": "[Chlorpromazine]", "Terminal Half-life": "8 to 35"}, {"smiles": "OCCN1CCN(CC/C=C2/c3ccccc3Sc3ccc(C(F)(F)F)cc32)CC1", "note": "[Flupenthixol]", "Terminal Half-life": "22 to 36"}, {"smiles": "OCCN1CCN(CCCN2c3ccccc3Sc3ccc(C(F)(F)F)cc32)CC1", "note": "[Fluphenazine]", "Terminal Half-life": "14 to 24"}, {"smiles": "O=C(CCCN1CCC(O)(c2ccc(Cl)cc2)CC1)c1ccc(F)cc1", "note": "[Haloperidol]", "Terminal Half-life": "12 to 36"}, {"smiles": "CN1CCN(C2=Nc3ccccc3Oc3ccc(Cl)cc32)CC1", "note": "[Loxapine]", "Terminal Half-life": 4}, {"smiles": "CCc1c(C)[nH]c2c1C(=O)C(CN1CCOCC1)CC2", "note": "(stereo not drawn) [Molindone]", "Terminal Half-life": 1.5}, {"smiles": "OCCN1CCN(CCCN2c3ccccc3Sc3ccc(Cl)cc32)CC1", "note": "[Perphenazine]", "Terminal Half-life": "8 to 21"}, {"smiles": "O=c1[nH]c2ccccc2n1C1CCN(CCCC(c2ccc(F)cc2)c2ccc(F)cc2)CC1", "note": "[Pimozide]", "Terminal Half-life": "48 to 72"}, {"smiles": "CN1CCN(CCCN2c3ccccc3Sc3ccc(Cl)cc32)CC1", "note": "[Prochlorperazine]", "Terminal Half-life": "4 to 8"}, {"smiles": "CSc1ccc2c(c1)N(CCC1CCCCN1C)c1ccccc1S2", "note": "(stereo not drawn) [Thioridazine]", "Terminal Half-life": "9 to 30"}, {"smiles": "CN1CCN(CC/C=C2/c3ccccc3Sc3ccc(S(=O)(=O)N(C)C)cc32)CC1", "note": "[Thiothixene]", "Terminal Half-life": 34}, {"smiles": "CN1CCN(CCCN2c3ccccc3Sc3ccc(C(F)(F)F)cc32)CC1", "note": "[Trifluoperazine]", "Terminal Half-life": "10 to 20"}]}]}
